One may read the melting point as the temperature, or range, at which the solid turns liquid. With `Cc1cc(N[C@@H]2CN(C(=O)OCc3ccccc3)C[C@@H]2O)c2cc(C)c(-c3ccc(Cl)cc3Cl)n2n1` [Example 1, Benzyl (3R,4S)-3-{[7-(2,4-dichlorophenyl)-2.6-dimethylpyrrolo[1,2-b]pyridazin-4-yl]amino}-4-hydroxypvrrolidine-1-carboxylate], the melting point lay in the range of 105 to 110 °C.

For the compound `Cc1cc(N2CCC3(CC2)OCCO3)c2cc(C)c(-c3ccc(Cl)cc3Cl)n2n1` [Example 8, 8-[7-(2,4-Dichlorophenyl)-2,6-dimethylpyrrolo[1,2-b]pyridazin-4-yl]-1,4-dioxa-8-azaspiro[4,5]decane], the melting point lay in the range of 193.2 to 196.4 °C.

`Cc1cc(N2CCC(=O)CC2)c2cc(C)c(-c3ccc(Cl)cc3Cl)n2n1` [Example 9, 1-[7-(2,4-Dichlorophenyl)-2,6-dimethylpyrrolo[1,2-b]pyridazin-4-yl]piperidin-4-one]: the melting point is 169.7 to 171.3 °C.

On to `Cc1cc(N2CC=C(C(N)=O)CC2)c2cc(C)c(-c3ccc(Cl)cc3Cl)n2n1` [Example 11, 1-[7-(2,4-Dichlorophenyl)-2,6-dimethylpyrrolo[1,2-b]pyridazin-4-yl]-1,2,3,6-tetrahydropyridine-4-carboxamide], for which the melting point was > 212 °C (dec.).

For the origin of these results see patent publication US20040242587A1, “Pyrrolo[1,2-b]pyridazine compounds” (Pfizer Inc, priority 2003, published 2004).
